Here are results for two compounds from patent US20140275281A1, “Geranylgeranyl acetone and derivatives thereof for intranasal administration” (COYOTE PHARMACEUTICALS, INC., priority 2013, published 2014).

SMILES strings stand for the structures.

A short description of this experiment: pharmacological activity of GGA isomers (test not described). The following applies: at low concentrations; statement in words only, no data given.

For the compound `CC(=O)CC/C=C(/C)CC/C=C(\C)CC/C=C(\C)CCC=C(C)C` (single isomer, unassigned) [cis-isomer of GGA, 5Z, 9E, 13E geranylgeranyl acetone], the pharmacological activity result is given as “at best of minimal activity”.

Take `CC(=O)CC/C=C(\C)CC/C=C(\C)CC/C=C(\C)CCC=C(C)C` (single isomer, unassigned) [trans-isomer of GGA, trans-GGA]: the pharmacological activity result is “pharmacologically active”.
